Measured values published in patent US20030229140A1, “Herbal molecule as potential anti-leukemic drug” (priority 2002, published 2003).
Read-outs that look alike come from different tables or passages of the source.

How the values were obtained:
leukemic cells = assay: Biological activity (destruction of leukemic cells) of Piper betel fractions and HPLC peaks; format: cell-based; conditions: fractions, zones and HPLC peaks of Piper betel leaf extract
Method: Collected material was examined for biological activity i.e. destruction of leukemic cells. […] 10 gm of above-mentioned material was loaded on Sephadex LH-20 column and chromatographed with water, water-methanol (1:1) and methanol as eluent. Three different fractions thus obtained from three different solvent systems were separately checked for biological activity. […] The column was equilibrated with methanol-water-acetic acid (23:76:1), flow rate was maintained at 1.0 ml per min and peaks were identified at 280 nm. According to the retention time (RE) different peaks could be divided into three zones, ZA/ZB and ZC (FIG. 1). ZA had 4 major peaks whereas ZB had very small to moderate 10 peaks and ZC had two distinct peaks. It was convenient to observe biological activity of three zones AA, ZB and ZC, which were separately tested on leukemia cells for destructive activity.

CML patient's PBMC = assay: Incubation of CML patient's PBMC (leukemic cells) with CA/PCQ, viable cell count; format: cell-based, human
Method: Whole blood (10 ml each) was drawn from previously diagnosed myeloid leukemic patients, one patient was diagnosed as AML and the other one was diagnosed as CML. Mononuclear cells were separated by Ficoll/hypaque density gradient centrifugation. […] Cells were then washed and counted for viability.

[1] = tested on: Molt 4 (T lymphoid cell line); assay: Growth inhibition of T-lymphoid cell line Molt-4 by CA; format: cell-based
Excerpt: Culture of T-Lymphoid cell line Molt-4. This cell line was obtained from American Type culture collection (ATCC), VA, USA and grown in vitro as described for the cell line K562.

[2] = tested on: Erythroleukemic cell line (K562); assay: Incubation of CD33- erythroleukemic cell line K562 with CA/PCQ, viable cell count; format: cell-based; conditions: for inhibition at 50 µg/mL: K562, 50.0 μg/ml; for inhibition at 100 µg/mL: K562, 100.0 μg/ml
Excerpt: This cell line was collected from American Type Culture Collection (ATCC), VA, USA. This cell line is […]. […] Cells were then washed and counted for viability.

[3] = Homo sapiens, 24 h, 1 day, 1 × 10^5 cells per ml per well, read-out: Percentage inhibition of Cell Growth
[4] = Homo sapiens, 48 h, 2 days, 1 × 10^5 cells per ml per well, read-out: Percentage inhibition of Cell Growth
[5] = Homo sapiens, 72 h, 3 days, 1 × 10^5 cells per ml per well, read-out: Percentage inhibition of Cell Growth

SMILES: O=C(/C=C/c1ccc(O)c(O)c1)O[C@@H]1C[C@](O)(C(=O)O)C[C@@H](O)[C@H]1O (single isomer, unassigned) [CA, chlorogenic acid or 3-Caffeoyl quinic acid]
- biological activity i.e. destruction of leukemic cells (in words) (leukemic cells): Except peak no 6 (Rt 9.16 min) no other peaks had shown detectable activity
- growth inhibition of leukemic cell lines (CML patient's PBMC; CML leukemic cells, 2×10^6/ml/well, 25 μg/ml of CA): up to 2.38
- destruction of cells (in words) (CML patient's PBMC; CML patient's leukemic cells): destroyed
- inhibition at 50 µg/mL (CML patient's PBMC; Homo sapiens, 24 h, CML patient's PBMC, 50.0 μg/ml, 1 day, 1 × 10^5 cells per ml per well, read-out: Percentage inhibition of Cell Growth): 4.76%
- inhibition at 100 µg/mL (CML patient's PBMC; Homo sapiens, 24 h, CML patient's PBMC, 100.0 μg/ml, 1 day, 1 × 10^5 cells per ml per well, read-out: Percentage inhibition of Cell Growth): 9.52%
- inhibition at 50 µg/mL (CML patient's PBMC; Homo sapiens, 48 h, CML patient's PBMC, 50.0 μg/ml, 2 days, 1 × 10^5 cells per ml per well, read-out: Percentage inhibition of Cell Growth): 22.2%
- inhibition at 100 µg/mL (CML patient's PBMC; Homo sapiens, 48 h, CML patient's PBMC, 100.0 μg/ml, 2 days, 1 × 10^5 cells per ml per well, read-out: Percentage inhibition of Cell Growth): 45%
- inhibition at 50 µg/mL (CML patient's PBMC; Homo sapiens, 72 h, CML patient's PBMC, 50.0 μg/ml, 3 days, 1 × 10^5 cells per ml per well, read-out: Percentage inhibition of Cell Growth): 30%
- inhibition at 100 µg/mL (CML patient's PBMC; Homo sapiens, 72 h, CML patient's PBMC, 100.0 μg/ml, 3 days, 1 × 10^5 cells per ml per well, read-out: Percentage inhibition of Cell Growth): 55.6%
- inhibition at 25 µg/mL (CML patient's PBMC; Homo sapiens, PBMC, 72 h, CML patient's leukemic cells, 25.0 μg/ml, 3 days, 2×10^5 cells per ml per well, read-out: % Inhibition of cell growth (After 3 days of incubation)): 2.38%
- inhibition at 50 µg/mL (CML patient's PBMC; Homo sapiens, PBMC, 72 h, CML patient's leukemic cells, 50.0 μg/ml, 3 days, 2×10^5 cells per ml per well, read-out: % Inhibition of cell growth (After 3 days of incubation)): 4.67%
- inhibition at 20 µg/mL (CML patient's PBMC; Homo sapiens, CML patient's PBMC, 20 μg/ml, 48 hr, 1 × 10^5 cells/ml/well, read-out: Percent inhibition of cell growth after 48 hr of incubation): 5.8%
- inhibition at 50 µg/mL (CML patient's PBMC; Homo sapiens, CML patient's PBMC, 50 μg/ml, 48 hr, 1 × 10^5 cells/ml/well, read-out: Percent inhibition of cell growth after 48 hr of incubation): 10.3%
- inhibition at 100 µg/mL (CML patient's PBMC; Homo sapiens, CML patient's PBMC, 100 μg/ml, 48 hr, 1 × 10^5 cells/ml/well, read-out: Percent inhibition of cell growth after 48 hr of incubation): 22.5%
- inhibition at 500 µg/mL (CML patient's PBMC; Homo sapiens, CML patient's PBMC, 500 μg/ml, 48 hr, 1 × 10^5 cells/ml/well, read-out: Percent inhibition of cell growth after 48 hr of incubation): 32.3%
- destruction of cells (in words) [1]: requires higher dose
- inhibition at 10 µg/mL ([2]; Homo sapiens, 24 h, K562, 10.0 μg/ml, 1 day, 1 × 10^5 cells per ml per well, read-out: Percentage inhibition of Cell Growth): 8%
- inhibition at 25 µg/mL ([2]; Homo sapiens, 24 h, K562, 25.0 μg/ml, 1 day, 1 × 10^5 cells per ml per well, read-out: Percentage inhibition of Cell Growth): 20%
- inhibition at 50 µg/mL [2, 3]: 28%
- inhibition at 100 µg/mL [2, 3]: 84%
- inhibition at 10 µg/mL ([2]; Homo sapiens, 48 h, K562, 10.0 μg/ml, 2 days, 1 × 10^5 cells per ml per well, read-out: Percentage inhibition of Cell Growth): 48.1%
- inhibition at 25 µg/mL ([2]; Homo sapiens, 48 h, K562, 25.0 μg/ml, 2 days, 1 × 10^5 cells per ml per well, read-out: Percentage inhibition of Cell Growth): 63%
- inhibition at 50 µg/mL [2, 4]: 77.8%
- inhibition at 100 µg/mL [2, 4]: 98.1%
- inhibition at 10 µg/mL ([2]; Homo sapiens, 72 h, K562, 10.0 μg/ml, 3 days, 1 × 10^5 cells per ml per well, read-out: Percentage inhibition of Cell Growth): 85.2%
- inhibition at 25 µg/mL ([2]; Homo sapiens, 72 h, K562, 25.0 μg/ml, 3 days, 1 × 10^5 cells per ml per well, read-out: Percentage inhibition of Cell Growth): 92.6%
- inhibition at 25 µg/mL ([2]; Homo sapiens, 72 h, K562, 25.0 μg/ml, 3 days, 2×10^5 cells per ml per well, read-out: % Inhibition of cell growth (After 3 days of incubation)): 20%
- inhibition at 50 µg/mL [2, 5]: 100%
- inhibition at 50 µg/mL ([2]; Homo sapiens, 72 h, 3 days, 2×10^5 cells per ml per well, read-out: % Inhibition of cell growth (After 3 days of incubation)): 28%
- inhibition at 100 µg/mL [2, 5]: 100%
- inhibition at 10 µg/mL ([2]; Homo sapiens, K562, 10 μg/ml, 48 hr, 1 × 10^5 cells/ml/well, read-out: Percent inhibition of cell growth after 48 hr of incubation): 46.6%
- inhibition at 15 µg/mL ([2]; Homo sapiens, K562, 15 μg/ml, 48 hr, 1 × 10^5 cells/ml/well, read-out: Percent inhibition of cell growth after 48 hr of incubation): 93.3%
- inhibition at 20 µg/mL ([2]; Homo sapiens, K562, 20 μg/ml, 48 hr, 1 × 10^5 cells/ml/well, read-out: Percent inhibition of cell growth after 48 hr of incubation): 100%
- inhibition at 25 µg/mL ([2]; Homo sapiens, K562, 2×10^6/ml/well, 25 μg/ml, read-out: growth inhibition of leukemic cell lines): ≤ 20%
- destruction of cells (in words) ([2]; K562): destroyed
